Where two headings read alike, the source gives them in different places.
Columns and labels:
[1] = tested on: HCV 1b genotype replicon; experiment: HCV replicon assay (qRT-PCR or luciferase), genotype 1b; assay type: cell-based; conditions: Hepatitis C virus
Method in brief: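 EC50 derived either from luciferase signal in Huh-luc/neo-ET replicon cells after 72 h compound exposure (0.2% DMSO, 37 °C) or from TaqMan qRT-PCR of replicon RNA normalized to GAPDH. MTS assay assessed cytotoxicity; combinations tested in 6-point two-fold checkerboards around each EC50.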

[2] = tested on: HCV 1a genotype replicon; experiment: HCV replicon assay (qRT-PCR or luciferase), genotype 1a; assay type: cell-based; conditions: Hepatitis C virus
Method in brief: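 Bartenschlager HCV replicon Huh cells; EC50 from HCV RNA by TaqMan qRT-PCR normalised to GAPDH, cytotoxicity by MTS. Combination studies in Huh-luc/neo-ET cells seeded at 7,000/well, compounds in 6-point two-fold dilutions, 0.2% DMSO final, 72 h at 37 °C, luciferase read-out.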

[3] = Table 12, numeric values, read-out: 1b EC50
[4] = Table 12, range class, read-out: 1a EC50 Range
[5] = Table 12, range class, read-out: 1b EC50 Range
[6] = Table 12, numeric values, read-out: 1a EC50

## COC(=O)N[C@H](C(=O)N1CC2(CC2)C[C@H]1c1nc2ccc(C#Cc3ccc(-c4cnc([C@@H]5CC6(CC6)CN5C(=O)[C@H](NC(=O)OC)c5ccccc5)[nH]4)cc3)cc2[nH]1)C(C)C (stereo in doubt) [Example 647]
[1]; [3]
  EC50: 0.008 nM
[2]; [4]
  EC50: < 1 nM

## COC(=O)N[C@H](C(=O)N1C[C@]2(CCCO2)C[C@H]1c1nc(-c2ccc(C#Cc3ccc4[nH]c([C@@H]5CC6(CC6)CN5C(=O)[C@@H](NC(=O)OC)C(C)C)nc4c3)cc2)c[nH]1)C(C)C [Example 546]
[1]; [3]
  EC50: 0.012 nM
[2]; [4]
  EC50: < 1 nM

## COC(=O)N[C@H](C(=O)N1CC2(CC2)C[C@H]1c1nc2ccc(C#Cc3ccc(-c4cnc([C@@H]5CC6(CC6)CN5C(=O)[C@@H](NC(=O)OC)[C@@H](C)OCCF)[nH]4)cc3)cc2[nH]1)C(C)C [Example 547]
[1]; [3]
  EC50: 0.018 nM
[2]; [4]
  EC50: < 1 nM

## COC(=O)N[C@H](C(=O)N1CCC[C@H]1c1nc(-c2ccc(C#Cc3ccc4[nH]c([C@@H]5C[C@@]6(CCCO6)CN5C(=O)[C@@H](NC(=O)OC)C(C)C)nc4c3)cc2)c[nH]1)C(C)C [Example 551]
[1]; [3]
  EC50: 0.013 nM
[2]; [4]
  EC50: < 1 nM

## COC(=O)N[C@@H](COC(N)=O)C(=O)N1CCC[C@H]1c1ncc(-c2ccc(C#Cc3ccc4nc([C@@H]5CC6(CC6)CN5C(=O)[C@@H](NC(=O)OC)C(C)C)[nH]c4c3)cc2)[nH]1 [Example 552]
[1]; [5]
  EC50: < 1 nM
[2]; [4]
  EC50: < 1 nM

## COC(=O)N[C@H](C(=O)N1CC2(CC2)C[C@H]1c1nc(-c2ccc(C#Cc3ccc4[nH]c([C@@H]5C[C@@]6(CCCO6)CN5C(=O)[C@@H](NC(=O)OC)C(C)C)nc4c3)cc2)c[nH]1)C(C)C [Example 555]
[1]; [3]
  EC50: 0.007 nM
[2]; [4]
  EC50: < 1 nM

## COC(=O)N[C@H](C(=O)N1C[C@@H](OC)C[C@H]1c1nc(-c2ccc(C#Cc3ccc4[nH]c([C@@H]5C[C@@]6(CCCO6)CN5C(=O)[C@@H](NC(=O)OC)C(C)C)nc4c3)cc2)c[nH]1)C(C)C [Example 558]
[1]; [5]
  EC50: < 1 nM
[2]; [4]
  EC50: < 1 nM

## COC(=O)N[C@H](C(=O)N1C[C@@H](O)C[C@H]1c1nc(-c2ccc(C#Cc3ccc4[nH]c([C@@H]5C[C@@]6(CCCO6)CN5C(=O)[C@@H](NC(=O)OC)C(C)C)nc4c3)cc2)c[nH]1)C(C)C [Example 561]
[1]; [3]
  EC50: 0.024 nM
[2]; [4]
  EC50: < 1 nM

## COC(=O)N[C@H](C(=O)N1CCC[C@H]1c1nc(-c2ccc(C#Cc3ccc4[nH]c([C@@H]5C[C@]6(CCOC6)CN5C(=O)[C@@H](NC(=O)OC)C(C)C)nc4c3)cc2)c[nH]1)C(C)C [Example 564]
[1]; [3]
  EC50: 0.008 nM
[2]; [4]
  EC50: < 1 nM

## COC(=O)N[C@H](C(=O)N1CC2(CC2)C[C@H]1c1ncc(-c2ccc(C#Cc3ccc4nc([C@@H]5C[C@]6(CCOC6)CN5C(=O)[C@@H](NC(=O)OC)C(C)C)[nH]c4c3)cc2)[nH]1)C(C)C [Example 565]
[1]; [3]
  EC50: 0.011 nM
[2]; [4]
  EC50: < 1 nM

## COC(=O)N[C@H](C(=O)N1C[C@](C)(F)C[C@H]1c1nc(-c2ccc(C#Cc3ccc4[nH]c([C@@H]5C[C@@]6(CCCO6)CN5C(=O)[C@@H](NC(=O)OC)C(C)C)nc4c3)cc2)c[nH]1)C(C)C [Example 567]
[1]; [3]
  EC50: 0.015 nM
[2]; [4]
  EC50: < 1 nM

## COC(=O)N[C@H](C(=O)N1CCC[C@H]1c1nc(-c2ccc(C#Cc3ccc4[nH]c([C@@H]5CC6(CCOCC6)CN5C(=O)[C@@H](NC(=O)OC)C(C)C)nc4c3)cc2)c[nH]1)C(C)C [Example 568]
[1]; [3]
  EC50: 0.009 nM
[2]; [4]
  EC50: < 1 nM

## COC(=O)N[C@H](C(=O)N1CCC[C@H]1c1ncc(-c2ccc(C#Cc3ccc4nc([C@@H]5C[C@@]6(CCCOC6)CN5C(=O)[C@@H](NC(=O)OC)C(C)C)[nH]c4c3)cc2)[nH]1)C(C)C [Example 569]
[1]; [3]
  EC50: 0.009 nM
[2]; [4]
  EC50: < 1 nM

## COC(=O)N[C@H](C(=O)N1CCC[C@H]1c1nc(-c2ccc3nc(-c4ccc5[nH]c([C@@H]6CC7(CC7)CN6C(=O)[C@@H](NC(=O)OC)C(C)C)nc5c4)ccc3c2)c[nH]1)C(C)C [Example 574]
[1]; [3]
  EC50: 0.036 nM
[2]; [6]
  EC50: 0.127 nM

## [2H]c1c([2H])c(-c2c[nH]c([C@@H]3CC4(CC4)CN3C(=O)[C@@H](NC(=O)OC)C(C)C)n2)c([2H])c([2H])c1C#Cc1ccc2[nH]c([C@@H]3CC4(CC4)CN3C(=O)[C@@H](NC(=O)OC)C(C)C)nc2c1 [Example 575]
[1]; [5]
  EC50: < 1 nM
[2]; [4]
  EC50: < 1 nM

## COC(=O)N[C@H](C(=O)N1CC2(CC2)C[C@H]1c1nc2cc(C#Cc3ccc(-c4c[nH]c([C@@H]5CCCN5C(=O)[C@H](NC(=O)OC)c5ccccc5)n4)cc3)ccc2[nH]1)C(C)C [Example 579]
[1]; [5]
  EC50: < 1 nM
[2]; [4]
  EC50: < 1 nM

## COC(=O)N[C@H](C(=O)N1CC2(CC2)C[C@H]1c1ncc(-c2ccc(C#Cc3ccc4nc([C@@H]5CC6(CC6)CN5C(=O)[C@H](NC(=O)OC)c5ccc(F)cc5)[nH]c4c3)cc2)[nH]1)C(C)C [Example 580]
[1]; [3]
  EC50: 0.007 nM
[2]; [4]
  EC50: < 1 nM

## COC(=O)N[C@H](C(=O)N1CC2(CC2)C[C@H]1c1ncc(-c2ccc(C#Cc3ccc4nc([C@@H]5CC6(CC6)CN5C(=O)[C@@H](NC(=O)OC)C5CCOCC5)[nH]c4c3)cc2)[nH]1)C1CCOCC1 [Example 583]
[1]; [5]
  EC50: < 1 nM
[2]; [4]
  EC50: < 1 nM

## COC(=O)N[C@H](C(=O)N1CC2(CC2)C[C@H]1c1ncc(-c2ccc(C#Cc3ccc4nc([C@@H]5C[C@@H](C6CC6)CN5C(=O)[C@@H](NC(=O)OC)C(C)C)[nH]c4c3)cc2)[nH]1)C(C)C [Example 612]
[1]; [5]
  EC50: < 1 nM
[2]; [4]
  EC50: < 1 nM

## COC(=O)N[C@H](C(=O)N1C[C@]2(C[C@H]1c1ncc(-c3ccc(C#Cc4ccc5nc([C@@H]6CC7(CC7)CN6C(=O)[C@@H](NC(=O)OC)C(C)C)[nH]c5c4)cc3)[nH]1)CC2(F)F)C(C)C [Example 614]
[1]; [3]
  EC50: 0.004 nM
[2]; [4]
  EC50: < 1 nM

## COC(=O)N[C@@H](CF)C(=O)N1CC2(CC2)C[C@H]1c1nc(-c2ccc(C#Cc3ccc4[nH]c([C@@H]5CC6(CC6)CN5C(=O)[C@@H](NC(=O)OC)C(C)C)nc4c3)cc2)c[nH]1 [Example 615]
[1]; [3]
  EC50: 0.005 nM
[2]; [4]
  EC50: < 1 nM

## COC(=O)N[C@@H](CCCNC(N)=O)C(=O)N1CC2(CC2)C[C@H]1c1nc(-c2ccc(C#Cc3ccc4[nH]c([C@@H]5CC6(CC6)CN5C(=O)[C@@H](NC(=O)OC)C(C)C)nc4c3)cc2)c[nH]1 [Example 616]
[1]; [3]
  EC50: 0.495 nM
[2]; [4]
  EC50: < 1 nM

## CC[C@H](C)[C@H](NC(=O)OC)C(=O)N1CCC[C@H]1c1ncc(-c2ccc(C#Cc3ccc4nc([C@@H]5CC6(CC6)CN5C(=O)[C@@H](NC(=O)OC)C(C)C)[nH]c4c3)cc2)[nH]1 [Example 673]
[2]; [4]
  EC50: < 1 nM

## CC[C@H](C)[C@H](NC(=O)OC)C(=O)N1CC2(CC2)C[C@H]1c1ncc(-c2ccc(C#Cc3ccc4nc([C@@H]5CC6(CC6)CN5C(=O)[C@@H](NC(=O)OC)C(C)C)[nH]c4c3)cc2)[nH]1 [Example 674]
[2]; [4]
  EC50: < 1 nM

## COC(=O)N[C@H](C(=O)N1CC2(CC2)C[C@H]1c1ncc(-c2ccc(C#Cc3ccc4nc([C@@H]5CC6(CC6)CN5C(=O)[C@@H](NC(=O)OC)C5CCCCC5)[nH]c4c3)cc2)[nH]1)C(C)C [Example 675]
[2]; [4]
  EC50: < 1 nM

## COC(=O)N[C@@H](C(=O)N1CC2(CC2)C[C@H]1c1ncc(-c2ccc(C#Cc3ccc4nc([C@@H]5CC6(CC6)CN5C(=O)[C@H](NC(=O)OC)c5cccc(F)c5)[nH]c4c3)cc2)[nH]1)c1cccc(F)c1 [Example 677]
[2]; [4]
  EC50: 1 to 10 nM

## COC(=O)N[C@H](C(=O)N1CC2(CC2)C[C@H]1c1ncc(-c2ccc(C#Cc3ccc4nc([C@@H]5CC6(CC6)CN5C(=O)[C@@H](NC(=O)OC)C5CCCC5)[nH]c4c3)cc2)[nH]1)C(C)C [Example 679]
[2]; [4]
  EC50: < 1 nM

## COC(=O)N[C@@H](C(=O)N1CC2(CC2)C[C@H]1c1ncc(-c2ccc(C#Cc3ccc4nc([C@@H]5CC6(CC6)CN5C(=O)[C@H](NC(=O)OC)c5cccs5)[nH]c4c3)cc2)[nH]1)c1cccs1 [Example 680]
[2]; [4]
  EC50: > 10 nM

## COC(=O)N[C@H](C(=O)N1CC2(CC2)C[C@H]1c1nc2ccc(C#Cc3ccc(-c4cnc([C@@H]5CCCN5C(=O)[C@H](NC(=O)OC)c5ccoc5)[nH]4)cc3)cc2[nH]1)C(C)C [Example 681]
[2]; [6]
  EC50: 0.202 nM

## COC(=O)N[C@H](C(=O)N1CC2(CC2)C[C@H]1c1nc2ccc(C#Cc3ccc(-c4cnc([C@@H]5CCCN5C(=O)[C@H](NC(=O)OC)c5ccco5)[nH]4)cc3)cc2[nH]1)C(C)C [Example 682]
[2]; [4]
  EC50: < 1 nM

## COC(=O)N[C@H](C(=O)N1CC2(CC2)C[C@H]1c1nc2ccc(C#Cc3ccc(-c4cnc([C@@H]5C[C@H]6C[C@H]6N5C(=O)[C@H](NC(=O)OC)c5cc(F)cc(F)c5)[nH]4)cc3)cc2[nH]1)C(C)C [Example 683]
[2]; [4]
  EC50: < 1 nM

## COC(=O)N[C@H](C(=O)N1CC2(CC2)C[C@H]1c1nc2ccc(C#Cc3ccc(-c4cnc([C@@H]5C[C@H]6C[C@H]6N5C(=O)[C@H](NC(=O)OC)c5cccc(F)c5)[nH]4)cc3)cc2[nH]1)C(C)C [Example 684]
[2]; [4]
  EC50: < 1 nM

## COC(=O)N[C@H](C(=O)N1C[C@@H]2C[C@@H]2[C@H]1c1nc2cc(C#Cc3ccc(-c4c[nH]c([C@@H]5CCCN5C(=O)[C@@H](NC(=O)OC)C(C)C)n4)cc3)ccc2[nH]1)C(C)C [Example 690]
[2]; [4]
  EC50: 1 to 10 nM
